“And” between values parts separate entries of the source, which are not always exact repeats. Identical values can stand only once.

Two compounds from publication PMC12344774, “Ferrocenyl Quinoline-Benzimidazole Hybrids: A Multistage Strategy to Combat Drug-Resistant Malaria” (Inorganic Chemistry, 2025) can be followed below.

Data set [1] relates to Mature gametocytes (>95% stage V). The experiment in a line: microbe, parasite or virus in culture. Particulars: 48 h drug pressure; for % Inhibition, mature gametocytes: maximum inhibition at 10 μM. The class given is cell-based, Plasmodium falciparum. The procedure: (§1) Compounds are diluted 3-fold in at least a 9-point serial dilution series starting at 20 μM, with a nonlethal DMSO concentration of <0.1% maintained. Luciferase activity was determined in 30 μL parasite lysates by adding 30 μL luciferin substrate (Promega Luciferase Assay System) at room temperature and detection of resultant bioluminescence at an integration constant of 10 s with the GloMax-Multi + Detection System with Instinct Software. Methylene blue (5 μM) and the clinical antimalarial candidate MMV390048 (5 μM) were used as controls. IC50 values were determined in GraphPad Prism using a nonlinear regression fit with variable slope (4-parameter) on the dose–response data.
(§2) Assay quality parameters are evaluated for each assay, including Z′-factors (data quality compared to reproducibility using signal, noise, and background parameters; accepted metric >0.6), regression (accepted r 2 > 0.9); >80% viable parasites (top plateau); <20% killed parasites (bottom plateau), hill slope ∼1.

The subject of data set [2] is Immature gametocytes (>90% stage II/III). The experiment in a line: microbe, parasite or virus in culture. The note with it: 48 h drug pressure; for % Inhibition, immature gametocytes: maximum inhibition at 10 μM. The class given is cell-based, Plasmodium falciparum. The procedure:
as §1, §2

For the next data set, the system named is PfNF54. The experiment in a line: In vitro ABS antiplasmodial activity, pLDH assay, drug-sensitive NF54. It is filed as cell-based, Plasmodium falciparum. The note with it: drug-sensitive NF54, ABS, pLDH, 48 h incubation; read-out: PfNF54 IC50 ± SEM. The source says: (§3) This side chain is also present in the well-known antiplasmodial agent, FQ.
(§4) Test samples were screened in technical duplicate or triplicate, for three or four biological replicates, for their in vitro blood stage antiplasmodial activity against both the drug-sensitive (NF54) and multidrug-resistant (K1) strains of . Continuous in vitro cultures of asexual erythrocyte stages of were maintained using a modified method of Trager and Jensen. A quantitative assessment of the in vitro antiplasmodial activity was determined via the parasite lactate dehydrogenase (pLDH) assay, using a modified method described by Makler and Hinrichs.
(§5) The test samples were prepared to a 20 mg/mL stock solution in 100% DMSO. Stock solutions were stored at −20 °C. Further dilutions were prepared in complete medium on the day of the experiment. […] Chloroquine diphosphate (CQDP) was used as the reference drug in all experiments. Test samples were tested at a starting concentration of either 100 μg/mL, 50 μg/mL, 10 μg/mL, or 1 μg/mL, which was then serially diluted 2-fold, in complete medium, to give 10 concentrations. The same dilution technique was used for all samples. […] The IC50 values were obtained from full dose–response curves, using a nonlinear dose–response curve fitting analysis, via GraphPad Prism v.5 software.

A short description of data set [3]: Cyclic voltammetry of the ferrocene/ferrocenium couple. The class given is physicochemical. The note with it: for Reversibility of the ferrocene/ferrocenium couple: DCM/0.1 M TBAP system. Here is the method:
It has been proposed that the oxidation of ferrocene (Fe(C5H5)2) to the ferrocenium cation (Fe(C5H5)2 ^+) is a reversible one-electron transfer process. […] This prompted the investigation into the electrochemical properties of the Fe(C5H5)2/Fe(C5H5)2 ^+ couple in complexes C1–C5, using cyclic voltammetry. FQ was used as the reference, as it is considered the benchmark for all newly developed ferrocenyl-based antiplasmodials.
Nuclear magnetic resonance (NMR) spectra were recorded on a Bruker XR600 MHz spectrometer (^1H at 599.95 MHz and ^13C{^1H} at 151.0 MHz), a Bruker […] (^1H at 400.22 MHz and ^13C{^1H} at 100.65 MHz), or a Varian Mercury 300 (^1H at 300.08 MHz) spectrometer. These were equipped with a Bruker Biospin GmbH casing and sample injector at 30 °C and tetramethylsilane (TMS) was used as the internal standard. Coupling constants are reported in Hz and chemical shifts are reported in ppm relative to residual solvent signals. Infrared (IR) spectroscopy was performed on a PerkinElmer Spectrum 100 FT-IR spectrometer, using attenuated total reflectance (ATR), with vibrations measured in units of cm^–1. Cyclic voltammetric measurements were carried out at ambient temperature under an inert argon atmosphere using a three-electrode system on a BASi Epsilon Eclipse potentiostat/galvanostat electrochemical workstation. The C-3 cell stand, equipped with a glassy carbon working electrode, Ag/AgCl (saturated NaCl) reference electrode, and a Pt wire auxiliary electrode were used to carry out electrochemical measurements. All experiments were carried out in anhydrous dichloromethane containing 0.10 M tetra-n-butylammonium perchlorate (TBAP) as the supporting electrolyte.

The subject of the next data set is PfK1. The data set can be described thus: microbe, parasite or virus in culture. It is filed as cell-based, Plasmodium falciparum. The note with it: MDR K1, ABS, pLDH, 48 h incubation; read-out: PfK1 IC50 ± SEM.
From the text: as §3, §4, §5

The next data set has as its system β-hematin formation. The experiment in a line: NP-40 detergent-mediated β-hematin formation inhibition assay (cell-free). It is filed as biochemical. The note with it: NP-40, pH 4.8, 5 h, 37 °C, read-out: β-hematin formation inhibition IC50 ± SEM. The source says: The ability of a compound to inhibit Hz formation can be predicted using the biomimetic cell-free NP40 detergent-mediated β-hematin formation inhibition assay. , This assay mimics the conditions in the acidic DV of the parasite and relies on the binding of pyridine to uncrystallized free heme to detect the inhibition of β-hematin formation using UV–vis spectroscopy (with absorbance measured at 405 nm). , Consequently, the ability of the ferrocenyl quinoline-benzimidazole hybrids (C1–C5) to inhibit β-hematin (synthetic Hz) formation was investigated as a potential mechanism of antiplasmodial action.
The β-hematin formation inhibition assay was modified from the method reported by Sandlin et al. , Stock solutions of the respective test compounds were prepared to 10 mM, in 100% DMSO, with the exception of CQ (used in the salt form, CQDP), which was prepared in Milli-Q water. […] NP-40 is a detergent used to mediate the formation of β-hematin. The solution in column 12 was then serially diluted 2-fold, through to column 2, to give a total of 11 concentrations. Column 1 contained 0 μM of the test compound and thus served as a blank. […] A 178.8 μL aliquot of this hematin suspension was added to 20.0 mL of a 2 M acetate buffer (pH = 4.8) and 100 μL of this solution added to each well. The plates were then covered and incubated for 5 h, at 37 °C. The assay was analyzed using the pyridine-ferrochrome method developed by Ncokazi and Egan. A solution containing water/acetone/2 M HEPES buffer (pH 7.4)/pyridine, in a v/v ratio of 2/2/1/5, was prepared and 32 μL was added to all wells, followed by 60 μL of acetone. The absorbance values were then measured at 405 nm, the results plotted using GraphPad Prism (v5), and the IC50 values obtained using a sigmoidal dose–response curve fitting analysis.

The mark [4] stands for this setting: scan rate 100 mV/s, CH2Cl2, 0.1 M TBAP.
Where [5] appears, read: vs Ag/AgCl, scan rate 100 mV/s, CH2Cl2, 0.1 M TBAP.

In the case of `Cc1ccc2c(c1)nc(-[c-]1cccc1)n2CCCNc1ccnc2cc(Cl)ccc12.[Fe+2].c1cc[cH-]c1` [Complex C1, 7-chloro-N-(3-(5-(methyl)-2-ferrocenyl-1H-benzo[d]imidazole-1-yl)propyl)quinolin-4-amine], the “% Inhibition, mature gametocytes” value in data set [1] was 7%. In data set [2], the “% Inhibition, immature gametocytes” value came out at 3%. In the data set on PfNF54, the IC50 is 9.91 ± 0.71 µM. Also, in data set [3], the “Reversibility of the ferrocene/ferrocenium couple” value was “chemically and electrochemically reversible”. In data set [3] (setting [4]), the Ipc/Ipa amounted to 1.04 and the ΔE is listed as 0.127 V. In addition, in data set [3] (setting [5]), the “Anodic peak potential Epa” value came to 0.638 V, the “Cathodic peak potential Epc” value is 0.510 V and the “Half-wave potential E1/2” value is on record as 0.574 V. In addition, the IC50 in the data set with PfK1 amounted to 6.29 ± 0.51 µM. For the same compound, the 50% inhibitory concentration (IC50) with β-hematin formation came out at 7.26 µM.

Take `Cc1ccc2c(c1)nc(-[c-]1cccc1CN(C)C)n2CCCNc1ccnc2cc(Cl)ccc12.[Fe+2].c1cc[cH-]c1` (centres unmarked) [Complex C3, 7-Chloro-N-(3-(5-methyl-2-(2-N,N-dimethylaminomethyl)ferrocenyl-1H-benzo[d]-imidazole-1-yl)propyl) Quinoline-4-amine]: the IC50 in data set [1] (read-out: IC50 ± S.E., mature gametocytes) is 7.27 µM; in data set [2] (read-out: IC50 ± S.E., immature gametocytes) it was 2.35 µM; in the data set with PfNF54 it was 0.025 ± 0.001 µM; with PfK1 it was 0.11 µM and 0.113 µM; in the data set with β-hematin formation, 5.42 µM. Moreover, the “% Inhibition, mature gametocytes” value in data set [1] is on record as 99%. Also, the “% Inhibition, immature gametocytes” value in data set [2] worked out at 88%. Moreover, the “Reversibility of the ferrocene/ferrocenium couple” value in data set [3] is “chemically and electrochemically irreversible”. The “Anodic peak potential Epa” value in data set [3] (setting [5]) is given as 0.678 V.
